Test results taken from publication PMC12615753, “Glutathione as a taste modulator: molecular mechanisms of interaction with umami and sweet taste receptors” (Food Chemistry: Molecular Sciences, 2025).

Biological target: T1, hTAS1R1 L223A/rTAS1R3 (Homo sapiens, UniProt Q7RTX1, L223A)
T1 construct: UniProtKB number Q7RTX1–1); expressed in transfected cells; host or cells: HEK293T/17 (ATCC CRL-11268)
T1 sequence (Q7RTX1 21-841 L223A): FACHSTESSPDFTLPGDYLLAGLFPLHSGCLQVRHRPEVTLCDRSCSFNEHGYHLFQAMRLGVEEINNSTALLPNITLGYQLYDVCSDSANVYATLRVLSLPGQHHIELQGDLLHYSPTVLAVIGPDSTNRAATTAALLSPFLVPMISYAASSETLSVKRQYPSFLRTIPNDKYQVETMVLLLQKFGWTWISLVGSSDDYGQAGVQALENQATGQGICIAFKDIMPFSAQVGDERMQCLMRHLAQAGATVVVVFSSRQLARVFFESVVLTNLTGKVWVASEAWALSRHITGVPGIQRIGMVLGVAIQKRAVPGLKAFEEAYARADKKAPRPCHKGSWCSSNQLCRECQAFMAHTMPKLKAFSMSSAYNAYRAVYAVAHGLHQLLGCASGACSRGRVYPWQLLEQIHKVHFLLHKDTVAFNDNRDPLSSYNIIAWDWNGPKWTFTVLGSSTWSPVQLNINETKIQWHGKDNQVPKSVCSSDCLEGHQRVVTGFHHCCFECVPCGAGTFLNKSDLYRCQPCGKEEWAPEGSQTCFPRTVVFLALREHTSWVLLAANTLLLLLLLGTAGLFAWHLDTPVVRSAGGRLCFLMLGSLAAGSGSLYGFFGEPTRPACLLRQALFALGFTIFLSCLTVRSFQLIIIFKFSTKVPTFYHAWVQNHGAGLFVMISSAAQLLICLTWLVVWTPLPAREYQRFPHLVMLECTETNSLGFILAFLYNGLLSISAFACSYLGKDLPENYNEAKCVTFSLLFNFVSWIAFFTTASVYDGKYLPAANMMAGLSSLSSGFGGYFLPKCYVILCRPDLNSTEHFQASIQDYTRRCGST
T1 sequence (Q923K1 21-858 partner): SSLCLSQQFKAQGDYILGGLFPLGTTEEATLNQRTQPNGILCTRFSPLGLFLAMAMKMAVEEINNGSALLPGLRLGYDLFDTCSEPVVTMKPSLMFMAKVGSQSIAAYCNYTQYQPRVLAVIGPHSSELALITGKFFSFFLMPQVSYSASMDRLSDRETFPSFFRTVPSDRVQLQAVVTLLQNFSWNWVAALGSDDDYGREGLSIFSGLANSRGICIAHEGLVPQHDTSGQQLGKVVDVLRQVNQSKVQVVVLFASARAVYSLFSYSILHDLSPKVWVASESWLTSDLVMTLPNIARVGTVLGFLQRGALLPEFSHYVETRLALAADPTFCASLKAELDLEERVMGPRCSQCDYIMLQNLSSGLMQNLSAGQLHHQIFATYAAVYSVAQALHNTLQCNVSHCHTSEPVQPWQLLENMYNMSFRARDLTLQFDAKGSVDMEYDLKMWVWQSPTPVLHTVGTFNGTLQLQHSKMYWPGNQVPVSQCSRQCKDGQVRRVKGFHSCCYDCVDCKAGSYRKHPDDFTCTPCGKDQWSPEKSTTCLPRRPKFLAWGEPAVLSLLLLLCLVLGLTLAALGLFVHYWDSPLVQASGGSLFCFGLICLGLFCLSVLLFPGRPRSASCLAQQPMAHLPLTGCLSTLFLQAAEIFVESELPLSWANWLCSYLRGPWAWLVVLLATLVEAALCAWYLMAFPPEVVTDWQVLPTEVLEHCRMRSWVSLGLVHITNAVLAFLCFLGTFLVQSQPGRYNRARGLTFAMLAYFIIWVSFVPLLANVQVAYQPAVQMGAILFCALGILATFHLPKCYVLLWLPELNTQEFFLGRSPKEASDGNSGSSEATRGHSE
Assay: Calcium assay, hTAS1R1 mutant co-expressed with rTAS1R3
Assay type: cell-based, rat

| SMILES | response to the agonist alone, vs WT (L223A) | EC50 [µM] | effect of the added compound (1 mM) on the response to L-Glu (L223A) | Max ∆F/F0 (L223A, GSH) | R1 = mutant EC50/WT EC50 (L223A, GSH) |
| --- | --- | --- | --- | --- | --- |
| N[C@@H](CCC(=O)O)C(=O)O [L-Glu, L-glutamic acid, reference compound] | increased the amplitude |  |  |  |  |
| N[C@@H](CCC(=O)N[C@@H](CS)C(=O)NCC(=O)O)C(=O)O [GSH, γ-L-glutamyl-L-cysteinyl-glycine] | significantly increased the initial amplitude | 2320 ± 308 | synergy was observed | 1.71 ± 0.09 | 0.9 |
